pEC50: −log10 of the molar value.
Experiments:
HL-60 cells = assay: HL-60 differentiation (NBT reduction, oxidative burst potential); format: cell-based; conditions: Homo sapiens, HL-60, 72 h; 3 days; 50% of maximal differentiation achieved with 100-1000 nM calcitriol
Experimental: The induction of differentiation of HL-60 cells was assayed by measuring their oxidative burst potential via the reduction of NBT (Nitro-bluetetraolium) according to a modified procedure of E. Pick et al. in J. Reticul.
30,000 cells/90 μl of RPMI/FCS were seeded into flat-bottomed microtiter wells. Immediately after seeding, 10 μl of vitamin D derivatives diluted in complete medium (RPMI/FCS) were added to yield final concentrations between 10^-11 and 10^-6 M (starting from 1 mM stock solutions in ethanol which were stored at -20° and protected from light). After 3 days, the medium was removed with a multichannel pipette and replaced with 100 μl of NBT solution (1 mg/ml in Dulbecco's PBS with 200 nM phorbol myristate acetate (PMA)). Following an incubation of 1 hour at 37° C. the NBT solution was removed and 100 μl of 10% SDS in 0.01N HCl was added. After further incubation at 37° C. for 6 hours (or more), the amount of the reduced NBT was quantified photometrically at 540 nm using an automated plate reader. The mean of 3 wells was calculated.
Values were expressed as percent of maximal differentiation achieved with 100-1000 nM calcitriol in the same experiment.

human VDR = molecular target: T1, human VDR (Homo sapiens, UniProt P11473); assay: VDR activation (transcription activation assay, luciferase reporter); format: cell-based; conditions: half-maximal induction of luciferase activity
T1 construct: expressed in transfected cells; host or cells: COS cells or CV-1 cells (VDR expressed in pSG5)
T1 sequence (P11473 1-427): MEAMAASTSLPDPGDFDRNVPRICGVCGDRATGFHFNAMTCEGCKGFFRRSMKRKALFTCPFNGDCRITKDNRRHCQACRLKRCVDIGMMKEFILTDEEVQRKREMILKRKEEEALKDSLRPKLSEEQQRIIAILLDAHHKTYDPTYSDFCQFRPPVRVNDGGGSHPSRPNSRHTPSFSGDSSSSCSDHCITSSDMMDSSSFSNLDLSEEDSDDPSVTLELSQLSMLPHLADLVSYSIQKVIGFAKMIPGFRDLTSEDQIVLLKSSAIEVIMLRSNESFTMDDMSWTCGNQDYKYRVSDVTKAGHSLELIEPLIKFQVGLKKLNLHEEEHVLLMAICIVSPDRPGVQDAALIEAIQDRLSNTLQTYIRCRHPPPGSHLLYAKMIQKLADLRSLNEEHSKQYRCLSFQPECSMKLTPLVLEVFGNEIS
Description: In order to measure the activation of the vitamin D receptor (VDR) by vitamin D analogs in cells a transcription activation assay was used. COS cells or CV-1 cells were cotransfected with the human VDR (expressed in pSG5) and a reporter gene containing three response elements (VDRE3) from the rat osteocalcine gene, the thymidine kinase basal promoter, and the luciferase reporter gene.

[1] = Calcium liability (tolerance test in mice); conditions: mouse, in vivo, sc; daily subcutaneous, 4 consecutive days; dose resulting in zero weight gain during 5 day treatment period; read-out: highest tolerated dose (mice)
Description: This routine test gives a global picture of calcemic liability. Profound changes in calcium homeostasis strongly affect the weight development of the animals. This parameter was used as a primary test for tolerance.
Mice (25-30 g body weight) received daily subcutaneous administrations of the vitamin D derivative for 4 consecutive days. Body weight was registered just before and at the end of a […] treatment period. The "highest tolerated dose" (HTD) in mice is the dose which results in zero weight gain during this treatment period.

SMILES | pEC50 (HL-60 cells) | pEC50 (human VDR; COS cells) | pEC50 (human VDR; CV-1 cells) | MTD [1] [µg/kg]
C=C1/C(=C\C=C2/CCC[C@]3(C)[C@@H]([C@H](C)CCCC(C)(C)O)CC[C@@H]23)C[C@@H](O)C[C@@H]1O [Calcitriol, reference compound] | 8.30 |  |  | 
C=C1/C(=C\C=C2/CCC[C@]3(C)[C@@H]([C@H](C)CCCC(C)(C)O)CCC[C@@H]23)C[C@@H](O)C[C@@H]1O [Compound of formula I, (1R,3S)-5-[(Z)-2-[(E)-(4aR,5R,8aR)-5-[(R)-5-Hydroxy-1,5-dimethyl-hexyl]-4a-methyl-octahydro-naphtalen-1-ylidene]-ethylidene]-4-methylene-cyclohexane-1,3-diol] | 9.43 | 8.92 | 10.40 | 0.6
